From PubChem BioAssay (NCI)
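Compound exposure: 48 hours, 5 concentrations, 96-well plates. At the GI50, growth is halved. TGI is the concentration that stops growth completely.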

How the values were obtained:
Assay in all cases: DTP human tumour cell line panel, 48 h
[1] = system: HT29 colon
[2] = system: SK-MEL-2 melanoma
[3] = system: PC-3 prostate
[4] = system: SF-268 CNS
[5] = system: OVCAR-8 ovarian
[6] = system: MDA-MB-435
[7] = system: IGROV1 ovarian
[8] = system: MOLT-4 leukemia
[9] = system: SW-620 colon
[10] = system: NCI-H522 lung
[11] = system: K-562 leukemia
[12] = system: SK-MEL-5 melanoma
[13] = system: RXF 393 renal
[14] = system: MCF7 breast
[15] = system: A549 NSCLC
[16] = system: SNB-19 CNS
[17] = system: UACC-257 melanoma
[18] = system: ACHN renal
[19] = system: A498 renal
[20] = system: SN12C renal
[21] = system: OVCAR-3 ovarian
[22] = system: NCI-H23 lung
[23] = system: KM12 colon
[24] = system: OVCAR-5 ovarian
[25] = system: 786-0 renal
[26] = system: TK-10 renal
[27] = system: SK-MEL-28 melanoma
[28] = system: UACC-62 melanoma
[29] = system: NCI-H460 lung
[30] = system: OVCAR-4 ovarian
[31] = system: UO-31 renal
[32] = system: HS 578T breast
[33] = system: T-47D breast
[34] = system: NCI-H226 lung
[35] = system: HOP-92 NSCLC
[36] = system: CAKI-1 renal
[37] = system: CCRF-CEM leukemia
[38] = system: RPMI-8226 leukemia
[39] = system: LOX IMVI melanoma
[40] = system: DU-145 prostate
[41] = system: M14 melanoma
[42] = system: BT-549 breast
[43] = system: SK-OV-3 ovarian
[44] = system: U251 CNS
[45] = system: HCT-15 colon
[46] = system: HCT-116 colon
[47] = system: COLO 205 colon
[48] = system: HCC-2998 colon
[49] = system: SF-295 CNS
[50] = system: MALME-3M melanoma
[51] = system: NCI/ADR-RES ovarian
[52] = system: SF-539 CNS
[53] = system: MDA-MB-231 breast
[54] = system: HOP-62 NSCLC
[55] = system: HL-60(TB) leukemia
[56] = system: SNB-75 CNS
[57] = system: EKVX NSCLC
[58] = system: SR leukemia

With CC(=O)N[C@@H](Cc1ccc(OP(=O)(O)O)cc1)C(=O)N[C@H]1CCC(=O)N2CCC[C@@H](C(=O)NC3CCc4ccccc43)N2C1=O (stereo not given in full) the GI50 [1] was greater than 25000 nM, the TGI [1] was greater than 25000 nM and the GI50 [2] was greater than 25000 nM. For the same compound, the TGI [2] was greater than 25000 nM, the GI50 [3] was greater than 25000 nM and the TGI [3] was greater than 25000 nM. For the same compound, the GI50 [4] was greater than 25000 nM, the TGI [4] was greater than 25000 nM and the GI50 [5] was greater than 25000 nM. For the same compound, the TGI [5] was greater than 25000 nM, the GI50 [6] was greater than 25000 nM and the TGI [6] was greater than 25000 nM. The GI50 [7] was greater than 25000 nM, the TGI [7] was greater than 25000 nM and the GI50 [8] was greater than 25000 nM. It also gave a TGI [8] greater than 25000 nM, a GI50 [9] greater than 25000 nM and a TGI [9] greater than 25000 nM. The GI50 [10] was greater than 25000 nM, the TGI [10] was greater than 25000 nM and the GI50 [11] was greater than 25000 nM. It also gave a TGI [11] greater than 25000 nM, a GI50 [12] greater than 25000 nM and a TGI [12] greater than 25000 nM. For the same compound, the GI50 [13] was greater than 25000 nM, the TGI [13] was greater than 25000 nM and the GI50 [14] was greater than 25000 nM. It also gave a TGI [14] greater than 25000 nM, a GI50 [15] greater than 25000 nM and a TGI [15] greater than 25000 nM. It also gave a GI50 [16] greater than 25000 nM, a TGI [16] greater than 25000 nM and a GI50 [17] greater than 25000 nM. It also gave a TGI [17] greater than 25000 nM, a GI50 [18] greater than 25000 nM and a TGI [18] greater than 25000 nM. It also gave a GI50 [19] greater than 25000 nM, a TGI [19] greater than 25000 nM and a GI50 [20] greater than 25000 nM. For the same compound, the TGI [20] was greater than 25000 nM, the GI50 [21] was greater than 25000 nM and the TGI [21] was greater than 25000 nM. For the same compound, the GI50 [22] was greater than 25000 nM, the TGI [22] was greater than 25000 nM and the GI50 [23] was greater than 25000 nM. The TGI [23] was greater than 25000 nM, the GI50 [24] was greater than 25000 nM and the TGI [24] was greater than 25000 nM. It also gave a GI50 [25] greater than 25000 nM, a TGI [25] greater than 25000 nM and a GI50 [26] greater than 25000 nM. For the same compound, the TGI [26] was greater than 25000 nM, the GI50 [27] was greater than 25000 nM and the TGI [27] was greater than 25000 nM. The GI50 [28] was greater than 25000 nM, the TGI [28] was greater than 25000 nM and the GI50 [29] was greater than 25000 nM. For the same compound, the TGI [29] was greater than 25000 nM, the GI50 [30] was greater than 25000 nM and the TGI [30] was greater than 25000 nM. It also gave a GI50 [31] greater than 25000 nM, a TGI [31] greater than 25000 nM and a GI50 [32] greater than 25000 nM. It also gave a TGI [32] greater than 25000 nM, a GI50 [33] greater than 25000 nM and a TGI [33] greater than 25000 nM. For the same compound, the GI50 [34] was greater than 25000 nM, the TGI [34] was greater than 25000 nM and the GI50 [35] was greater than 25000 nM. For the same compound, the TGI [35] was greater than 25000 nM, the GI50 [36] was greater than 25000 nM and the TGI [36] was greater than 25000 nM. For the same compound, the GI50 [37] was greater than 25000 nM, the TGI [37] was greater than 25000 nM and the GI50 [38] was greater than 25000 nM. For the same compound, the TGI [38] was greater than 25000 nM, the GI50 [39] was greater than 25000 nM and the TGI [39] was greater than 25000 nM. The GI50 [40] was greater than 25000 nM, the TGI [40] was greater than 25000 nM and the GI50 [41] was greater than 25000 nM. The TGI [41] was greater than 25000 nM, the GI50 [42] was greater than 25000 nM and the TGI [42] was greater than 25000 nM. The GI50 [43] was greater than 25000 nM, the TGI [43] was greater than 25000 nM and the GI50 [44] was greater than 25000 nM. For the same compound, the TGI [44] was greater than 25000 nM, the GI50 [45] was greater than 25000 nM and the TGI [45] was greater than 25000 nM. It also gave a GI50 [46] greater than 25000 nM, a TGI [46] greater than 25000 nM and a GI50 [47] greater than 25000 nM. The TGI [47] was greater than 25000 nM, the GI50 [48] was greater than 25000 nM and the TGI [48] was greater than 25000 nM. The GI50 [49] was greater than 25000 nM, the TGI [49] was greater than 25000 nM and the GI50 [50] was greater than 25000 nM. For the same compound, the TGI [50] was greater than 25000 nM, the GI50 [51] was greater than 25000 nM and the TGI [51] was greater than 25000 nM. For the same compound, the GI50 [52] was greater than 25000 nM, the TGI [52] was greater than 25000 nM and the GI50 [53] was greater than 25000 nM. The TGI [53] was greater than 25000 nM, the GI50 [54] was greater than 25000 nM and the TGI [54] was greater than 25000 nM. For the same compound, the GI50 [55] was greater than 25000 nM, the TGI [55] was greater than 25000 nM and the GI50 [56] was greater than 25000 nM. For the same compound, the TGI [56] was greater than 25000 nM.
For COCCn1c2c([n+](Cc3cnccn3)c1C)C(=O)c1ccccc1C2=O, the GI50 [1] was 30.9 nM, the TGI [1] was 111 nM and the GI50 [2] was less than 10 nM. The TGI [2] was 12.7 nM, the GI50 [3] was less than 10 nM and the TGI [3] was 35.9 nM. The GI50 [4] was less than 10 nM, the TGI [4] was less than 10 nM and the GI50 [5] was less than 10 nM. For the same compound, the TGI [5] was less than 10 nM, the GI50 [6] was less than 10 nM and the TGI [6] was less than 10 nM. For the same compound, the GI50 [7] was less than 10 nM, the TGI [7] was less than 16.9 nM and the GI50 [8] was less than 10 nM. For the same compound, the TGI [8] was 34 nM, the GI50 [9] was less than 10 nM and the TGI [9] was 17.6 nM. It also gave a GI50 [10] of less than 10 nM, a TGI [10] of less than 10 nM and a GI50 [11] of less than 10 nM. For the same compound, the TGI [11] was 5600 nM, the GI50 [57] was less than 10 nM and the TGI [57] was 16.2 nM. For the same compound, the GI50 [12] was less than 10 nM, the TGI [12] was 16.2 nM and the GI50 [13] was 15.6 nM. For the same compound, the TGI [13] was 128 nM, the GI50 [15] was 16.6 nM and the TGI [15] was 43.4 nM. It also gave a GI50 [16] of less than 10 nM, a TGI [16] of 15.3 nM and a GI50 [17] of less than 10 nM. For the same compound, the TGI [17] was less than 10 nM, the GI50 [18] was 40 nM and the TGI [18] was 2110 nM. The GI50 [19] was 98.7 nM, the TGI [19] was 573 nM and the GI50 [20] was less than 10 nM. The TGI [20] was 31.6 nM, the GI50 [21] was less than 10 nM and the TGI [21] was less than 10 nM. For the same compound, the GI50 [22] was less than 10 nM, the TGI [22] was less than 11.3 nM and the GI50 [23] was 37.6 nM. For the same compound, the TGI [23] was 557 nM, the GI50 [24] was 30.8 nM and the TGI [24] was 129 nM. It also gave a GI50 [25] of 14.3 nM, a TGI [25] of 99.2 nM and a GI50 [58] of less than 10.8 nM. For the same compound, the TGI [58] was 6850 nM, the GI50 [26] was 35.2 nM and the TGI [26] was 222 nM. For the same compound, the GI50 [27] was 16.4 nM, the TGI [27] was 41.9 nM and the GI50 [28] was 18.5 nM. It also gave a TGI [28] of 45.4 nM, a GI50 [29] of 20.8 nM and a TGI [29] of 112 nM. It also gave a GI50 [30] of less than 10 nM, a TGI [30] of 12 nM and a GI50 [31] of 844 nM. The TGI [31] was greater than 78500 nM, the GI50 [32] was 302 nM and the TGI [32] was 10700 nM. For the same compound, the GI50 [33] was 24.6 nM, the TGI [33] was 153 nM and the GI50 [34] was less than 14.3 nM. For the same compound, the TGI [34] was 29.3 nM, the GI50 [35] was 20.9 nM and the TGI [35] was 54.9 nM. The GI50 [36] was 2720 nM, the TGI [36] was greater than 100000 nM and the GI50 [37] was 20.7 nM. For the same compound, the TGI [37] was 345 nM, the GI50 [38] was less than 10 nM and the TGI [38] was less than 11.4 nM. It also gave a GI50 [39] of less than 10 nM, a TGI [39] of less than 11.8 nM and a GI50 [40] of less than 10 nM. For the same compound, the TGI [40] was 19 nM, the GI50 [41] was less than 12.6 nM and the TGI [41] was 50.5 nM. It also gave a GI50 [42] of 26.4 nM, a TGI [42] of 87.6 nM and a GI50 [43] of 58.8 nM. For the same compound, the TGI [43] was 573 nM, the GI50 [44] was less than 10 nM and the TGI [44] was less than 10 nM. It also gave a GI50 [45] of 251 nM, a TGI [45] greater than 100000 nM and a GI50 [46] of less than 10 nM. The TGI [46] was 10.6 nM, the GI50 [47] was 23.5 nM and the TGI [47] was 62.6 nM. The GI50 [48] was less than 10 nM, the TGI [48] was 37.3 nM and the GI50 [49] was 27 nM. The TGI [49] was 84.3 nM, the GI50 [50] was 126 nM and the TGI [50] was 316 nM. The TGI [51] was greater than 100000 nM, the GI50 [52] was less than 10 nM and the TGI [52] was 33.7 nM. The GI50 [53] was less than 10 nM, the TGI [53] was 13 nM and the GI50 [54] was 22.1 nM. It also gave a TGI [54] of 119 nM, a GI50 [55] of less than 10 nM and a TGI [55] of less than 10 nM. For the same compound, the GI50 [56] was 31.3 nM and the TGI [56] was 107 nM.
